pKi: −log10 of the molar value.
How the values were obtained:
[1] = target: Sodium-dependent dopamine transporter (Rattus norvegicus, UniProt P23977); assay: Inhibition of reuptake of DA into striatal nerve endings (synaptosomes); format: subcellular, Brain
[2] = target: T1, Sodium-dependent dopamine transporter (Homo sapiens, UniProt Q01959); assay: Inhibition of [3H]DA uptake evaluated at the dopamine transporter
[3] = target: T1, Sodium-dependent dopamine transporter; assay: Affinity to displace binding of [3H]WIN-35428 to dopamine transporter
[4] = target: Sodium-dependent noradrenaline transporter (Homo sapiens, UniProt P23975); assay: Inhibition of [3H]-NE uptake evaluated at the monoamine transporter (NET)
[5] = target: Sodium-dependent serotonin transporter (Homo sapiens, UniProt P31645); assay: Inhibition of [3H]-5-HT uptake evaluated at the Serotonin transporter

Row | SMILES | pKi [1] | pKi [2] | pKi [3] | pKi [4] | pKi [5]
1 | Clc1ccccc1/C=C(/c1ccccc1)c1ccccn1 | < 6.00 |  |  |  | 
2 | c1ccc(Cc2ccnc(Cc3ccccc3)c2)cc1 | 5.64 |  |  |  | 
3 | c1ccc(-c2nnnn2-c2cnc3ccccc3c2)cc1 | < 6.00 |  |  |  | 
4 | CN=C=C(c1ccc(Cl)cc1)c1ccc(Cl)cc1 | < 6.00 |  |  |  | 
5 | c1ccc(C(c2ccccc2)c2cccnc2)cc1 |  | 6.07 | 6.11 | 5.14 | 4.90
6 | c1ccc2cc(-c3nnnn3-c3cnc4ccccc4c3)ccc2c1 | < 6.00 |  |  |  | 
7 | c1cncc(-c2c3ccccc3cc3ccccc23)c1 |  | < 5.00 | < 5.00 | < 5.00 | < 5.00
8 | Clc1cnc(-c2ccccc2)n1Cc1ccccc1 | < 6.00 |  |  |  | 
9 | c1ccc(C(c2ccccc2)c2ccncc2)cc1 | 6.70 | 6.59 | 7.10 | 5.46 | 5.94
10 | c1ccc(CC(c2ccccc2)c2ccncc2)cc1 (configuration not stated) |  | 6.58 | 7.00 | 6.41 | 6.04
11 | CN=C=C(c1ccccc1)c1ccccc1 | < 6.00 |  |  |  | 
12 | CN(C)CCC(C#N)(c1ccccc1)c1ccccc1 | < 6.00 |  |  |  | 
13 | c1ccc(C(c2ccccc2)c2ccccn2)cc1 |  |  | 6.13 | 5.26 | 4.46
14 | c1ccc2c(-c3ccncc3)c3ccccc3cc2c1 |  | < 5.00 | < 5.00 | < 5.00 | < 5.00
15 | c1ccc(Cc2ccncc2)cc1 |  | < 5.00 | < 5.00 | < 5.00 | < 5.00
16 | N#Cc1c(Cl)nnc(-c2ccccc2)c1-c1ccccc1 | < 6.00 |  |  |  | 

Reference: ChEMBL document CHEMBL1136563, “Pharmacophore-based discovery of substituted pyridines as novel dopamine transporter inhibitors” (Bioorg Med Chem Lett, 2003)
